Key:
[1] = test system: mouse cerebellar granular neurons; test: Neurite outgrowth assay; assay type: cell-based; conditions: 30 μg/ml peptide; for average neurite length: 24 h in culture
Experimental: For neurite outgrowth assays, chick Ng-CAM was purified from chick brain using an antibody-based affinity column according to techniques well known in the art. The anti-Ng-CAM antibody was antibody 8D9 (Developmental Studies Hybridoma Bank, University of Iowa). Then purified chick Ng-CAM (50 μg/ml) or mouse laminin (Invitrogen, 100 μg/ml) was spotted on a 35 mm plastic culture dish at room temperature (RT) for 1 hr. After washing with PBS, the plastic surface was blocked with 1% Bovine Serum Albumin in phosphate buffered saline (13SA/PBS) at RT. Negative control dishes were coated with 1% Bovine Serum Albumin in phosphate buffered saline (BSA/PBS) at RT.
Cerebellar cells were prepared from postnatal day 4 (P4) mouse by trypsinization followed by trituration. Postnatal day 4 (P4) mouse cerebellum was minced in Calcium/Magnesium-free phosphate buffer (Ca/Mg-free PBS). Minced cerebellum was then treated with 0.05% Trypsin (Gibco) in Ca/Mg-free PBS for 15 minutes at 37° C. Trypsinization was halted by addition of 10% Fetal Calf Serum (Hyclone). Trypsinized cells were then triturated 5 times with a fire-polished Pasteur pipette to dissociate the cells. The remaining cell clumps were allowed to settle, and the suspended cells were plated and maintained for use in the neurite outgrowth assays.
Cultured cerebellar cells were resuspended in BME/B-27 medium (BME medium plus B-27 supplement, both from Gibco) supplemented with penicillin/streptomycin (Gibco) to a cell density of 5×10^5 cells/ml. Then 250 μl of this cell suspension was plated on the dishes. AP-YF or AP-Scramble peptides dissolved in Hank's Balanced Salt Solution (Gibco) were added to the plated cells at final concentration of 30 μg/ml. Cultures were incubated at 37° C. for 24 hrs in 5% CO2. These cultures were fixed with 4% paraformaldehyde and images were collected on a Zeiss Axiovert 100TV microscope using a 100× plan neofluor objective. Neurite outgrowth measurements were performed using NIH image software. Data was expressed as average neurite length in μm (+/− standard deviation). P-values were determined using Student's t-test analysis. Microsoft Excel was used to plot the data as % neurites of length greater than Xpm versus neurite length X (in μm).
Mouse cerebellar granular neurons were plated on tissue culture dishes coated with chick Ng-CAM, a chick homolog of L1-CAM, or on tissue culture dishes coated with mouse laminin. The Ng-CAM substrate interacts with cell-surface L1-CAM, while laminin substrate interacts with cell surface integrins and therefore serves as the negative control. These cultures were treated with either AP-YF or AP-Scramble peptides. After 24 hours of culture, the neurons were fixed and neurite outgrowth lengths w-ere measured by NIH image software degree (in μm).

[2] = test system: secretion of Substance P from DRG neurons; test: Substance P secretion, single-cell immunoblot assay; assay type: cell-based, chick; conditions: DRG neurons pre-incubated with peptide 1.4 μg/ml for 1 hour
Experimental: Secretion Assay: Secretion of substance P was analyzed using the single-cell immunoblot method adapted from Huang and Neher (Huang, L. Y., Neher, E. (1996) Neuron. 17, 135-45.). Briefly, polyvinylidene difluoride transfer membranes (Immobilon P brand from Millipore) were cut to […] and placed in a 6-well plate. Membranes were pre-wetted with methanol for 20 s, rinsed with distilled water and allowed to equilibrate in test solution for >1 hr. In parallel, DRG cells plated were incubated with media containing AP-YF or AP-Scr (1.4 μg/ml) for 1 hour. This media was removed, and replaced with 70 μl of test solution. The membranes were then placed on top of the cells, and allowed to incubate at 37° C. in a humidified CO2 incubator for 30 min. The membranes were then carefully removed from the cells and allowed to dry completely and fixed with powdered paraformaldehyde at 80° C. for 1 hr. Fixed membranes were rinsed in PBS (1 mM KH2PO4, 10 mM Na2HPO4, 137 mM NaCl, 2.7 mM KCl) containing 1% Triton X-100 (PBS-T) to remove excess paraformaldehyde, and blocked with PBS-T containing 3% fetal bovine serum (FBS) for 30 min at room temperature. The membranes were incubated with anti-substance P antibody (Santa Cruz) at 1:200 dilution in PBS-T with 1% FBS overnight in 37° C. incubator. The next day the membranes were developed with a peroxidase/diamninobenzidine (DAB) reaction using the ABC staining kit from Santa Cruz Biotechnology. Images were taken using a CCD camera, and analyzed using Photoshop and NIH image software. Data were plotted by assigning an upper and lower limit of gray values and plotting % of cells at a range within those limits. By plotting graphs as % of cells in a dynamic range, multiple experimental runs were pooled.

| Sequence | average neurite length ([1]; on Ng-CAM substrate) [μm] | high K^+-induced secretion of Substance P [2] | neurite extension above control levels ([1]; on Ng-CAM substrate, 24 h, vs AP-Scramble) [%] | axon extension on laminin ([1]; on laminin substrate, 24 h, vs AP-Scramble) |
| --- | --- | --- | --- | --- |
| RQIKIWFQNRRMKWKKFQGIFSGDENFQ [AP-Scramble] | 21 | did not affect secretion significantly |  |  |
| RQIKIWFQNRRMKWKKQFNEDGSFIGQF [AP-YF] | 32 | blocks high K^+-induced secretion | 55 | not significantly affected |

From US7737250B2, “Peptides for treating axonal damage, inhibition of neurotransmitter release and pain transmission, and blocking calcium influx in neurons” (Mount Sinai School of Medicine of New York University, priority 2003, dated 2010)
